Converted amounts (≈) assume the structure as drawn. Non-standard residues stand in square brackets, D forms with d. Residues, ends and D or L forms follow the SMILES beside them. ξ: configuration not given here. Ac6c = NC1(C(=O)O)CCCCC1; Ac5c = NC1(C(=O)O)CCCC1; ξOrn = NCCCC(N)C(=O)O; ξDab = NCCC(N)C(=O)O
Legend:
[1] = test system: Klebsiella aerogenes; assay: Antibacterial activity against carbapenem-resistant Enterobacter aerogenes NCDC819-56 ATCC 13048 by two fold serial dilution method; format: functional
[2] = test system: Acinetobacter baumannii; assay: Antibacterial activity against Acinetobacter baumannii B5W71 ATCC 15149 by two fold serial dilution method; format: functional
[3] = Antibacterial activity against Salmonella enterica LT2 Typhimurium ATCC 15277 by two fold serial dilution method; format: functional
[4] = test system: Pseudomonas aeruginosa; assay: Antibacterial activity against Pseudomonas aeruginosa Boston 41501 ATCC 27853 by two fold serial dilution method; format: functional
[5] = Antibacterial activity against carbapenem-resistant Klebsiella pneumoniae K6 ATCC 700603 by two fold serial dilution method; format: functional, Klebsiella pneumoniae 700603
[6] = test system: Enterococcus faecalis; assay: Antibacterial activity against Enterococcus faecalis Portland ATCC 29212 by two fold serial dilution method; format: functional; settings: ATCC 29212 Portland
[7] = test system: Staphylococcus aureus; assay: Antibacterial activity against methicillin-resistant Staphylococcus aureus USA 300 NRS 384 by two fold serial dilution method; format: functional
[8] = Antibacterial activity against Clostridium difficile VIP 10463 ATCC 43255 by two fold serial dilution method; format: functional, Clostridium difficile ATCC 43255; settings: Clostridioides difficile
[9] = test system: Staphylococcus aureus; assay: Antibacterial activity against Staphylococcus aureus Seattle 1945 ATCC 25923 by two fold serial dilution method; format: functional
[10] = test system: Streptococcus pneumoniae; assay: Antibacterial activity against Streptococcus pneumoniae 262 ATCC 49619 by two fold serial dilution method; format: functional
[11] = test system: Neisseria gonorrhoeae; assay: Antibacterial activity against Neisseria gonorrhoeae F-18 ATCC 49226 by two fold serial dilution method; format: functional
[12] = Antibacterial activity against Bacillus anthracis Ames NR-3838 by two fold serial dilution method; format: functional, Bacillus anthracis str. Ames
[13] = Antibacterial activity against Francisella tularensis SCHU S4 NR-643 by two fold serial dilution method; format: functional
[14] = Antibacterial activity against Yersinia pestis CO92 NR641 by two fold serial dilution method; format: functional
[15] = test system: Burkholderia pseudomallei; assay: Antibacterial activity against Burkholderia pseudomallei AHS 1 NCTC 8016 by two fold serial dilution method; format: functional
[16] = test system: Mycobacterium tuberculosis; assay: Antibacterial activity against Mycobacterium tuberculosis H37Ra ATCC 2517 by two fold serial dilution method; format: functional
[17] = test system: CFPAC-1; assay: Antiproliferative activity against human CFPAC-1 cells after 72 hrs by Celltiter-Glo luminescent cell viability assay; format: functional, cell-based; settings: CFPAC-1, 72 h
[18] = test system: MCF7; assay: Antiproliferative activity against human MCF7 cells after 72 hrs by Celltiter-Glo luminescent cell viability assay; format: functional, cell-based; settings: MCF7, 72 h
[19] = Antiproliferative activity against human IGROV1 cells after 72 hrs by Celltiter-Glo luminescent cell viability assay; format: functional, cell-based; settings: IGROV-1, 72 h
[20] = Antiproliferative activity against human COLO205 cells after 72 hrs by Celltiter-Glo luminescent cell viability assay; format: functional, cell-based; settings: COLO 205, 72 h
[21] = Antiproliferative activity against human DLD1 cells after 72 hrs by Celltiter-Glo luminescent cell viability assay; format: functional, cell-based; settings: DLD-1, 72 h
[22] = Antiproliferative activity against human UACC62 cells after 72 hrs by Celltiter-Glo luminescent cell viability assay; format: functional, cell-based; settings: UACC-62, 72 h
[23] = Antiproliferative activity against human MIAPaCa2 cells after 72 hrs by Celltiter-Glo luminescent cell viability assay; format: functional, cell-based; settings: MIA PaCa-2, 72 h
[24] = test system: A498; assay: Antiproliferative activity against human A498 cells after 72 hrs by Celltiter-Glo luminescent cell viability assay; format: functional, cell-based; settings: A498, 72 h
[25] = Antiproliferative activity against human PC3 cells after 72 hrs by Celltiter-Glo luminescent cell viability assay; format: functional, cell-based; settings: PC-3, 72 h
[26] = test system: A549; assay: Antiproliferative activity against human A549 cells after 72 hrs by Celltiter-Glo luminescent cell viability assay; format: functional, cell-based; settings: A549, 72 h
[27] = test system: NCI-H69; assay: Antiproliferative activity against human NCI-H69 cells after 72 hrs by Celltiter-Glo luminescent cell viability assay; format: functional, cell-based; settings: NCI-H69, 72 h
[28] = test system: RL; assay: Antiproliferative activity against human RL cells after 72 hrs by Celltiter-Glo luminescent cell viability assay; format: functional, cell-based

For `CC(=O)NCC(=O)N[C@@H](Cc1ccccc1)C(=O)NC1(C(=O)NCC(=O)NC2(C(=O)NC(CCCN)C(=O)NC3(C(=O)NCC(=O)NC4(C(=O)N[C@@H](Cc5ccccc5)C(=O)NC5(C(=O)NCC(=O)NC6(C(=O)NCC(=O)NC(CCCN)C(=O)NC7(C(=O)NC(CCCN)C(=O)NC(CCCN)C(=O)NC(CCCN)C(=O)NC(CCCN)C(N)=O)CCCCC7)CCCCC6)CCCCC5)CCCCC4)CCCCC3)CCCCC2)CCCCC1` (some centres undefined) (Ac-GF[Ac6c]G[Ac6c][ξOrn][Ac6c]G[Ac6c]F[Ac6c]G[Ac6c]G[ξOrn][Ac6c][ξOrn][ξOrn][ξOrn][ξOrn]-NH2), the MIC [1] was 22.8 µM (≈ 50 µg/mL), the MIC [2] was 2.84 µM (≈ 6.25 µg/mL) and the MIC [3] was 2.84 µM (≈ 6.25 µg/mL). The MIC [4] was 1.42 µM (≈ 3.12 µg/mL), the MIC [5] was 22.8 µM (≈ 50 µg/mL) and the MIC [6] was 11.4 µM (≈ 25 µg/mL). It also gave an MIC [7] of 22.8 µM (≈ 50 µg/mL), an MIC [8] of 5.67 µM (≈ 12.5 µg/mL) and an MIC [9] of 5.67 µM (≈ 12.5 µg/mL). The MIC [10] was 45.5 µM (≈ 100 µg/mL), the MIC [11] was 2.84 µM (≈ 6.25 µg/mL) and the MIC [12] was 2.84 µM (≈ 6.25 µg/mL). It also gave an MIC [13] of 45.5 µM (≈ 100 µg/mL), an MIC [14] of over 45 µM and an MIC [15] of over 45 µM. For the same compound, the MIC [16] was 11.4 µM (≈ 25 µg/mL), the IC50 [17] was 5.9 µM and the IC50 [18] was 4.6 µM. It also gave an IC50 [19] of 5.4 µM, an IC50 [20] of 3.2 µM and an IC50 [21] of 6.2 µM. It also gave an IC50 [22] of 3.1 µM, an IC50 [23] of 3.6 µM and an IC50 [24] of 4.7 µM. It also gave an IC50 [25] of 7.5 µM, an IC50 [26] of 6.5 µM and an IC50 [27] of 1.7 µM. For the same compound, the IC50 [28] was 2.5 µM.
`CC(=O)NCC(=O)N[C@@H](Cc1ccccc1)C(=O)NC1(C(=O)NCC(=O)NC2(C(=O)N[C@@H](CCCCN)C(=O)NC3(C(=O)NCC(=O)NC4(C(=O)N[C@@H](Cc5ccccc5)C(=O)NC5(C(=O)NCC(=O)NC6(C(=O)NCC(=O)N[C@@H](CCCCN)C(=O)NC7(C(=O)N[C@@H](CCCCN)C(=O)N[C@@H](CCCCN)C(=O)N[C@@H](CCCCN)C(=O)N[C@@H](CCCCN)C(N)=O)CCCC7)CCCCC6)CCCC5)CCCCC4)CCCC3)CCCCC2)CCCC1` (Ac-GF[Ac5c]G[Ac6c]K[Ac5c]G[Ac6c]F[Ac5c]G[Ac6c]GK[Ac5c]KKKK-NH2) gave an MIC [1] of over 45 µM, an MIC [2] of over 45 µM and an MIC [3] of 11.2 µM (≈ 25 µg/mL). For the same compound, the MIC [4] was 5.61 µM (≈ 12.5 µg/mL), the MIC [5] was 44.8 µM (≈ 99.9 µg/mL) and the MIC [6] was over 45 µM. It also gave an MIC [7] of over 45 µM, an MIC [8] of 1.4 µM (≈ 3.12 µg/mL) and an MIC [9] of 44.5 µM (≈ 99.1 µg/mL). The MIC [10] was over 45 µM, the MIC [11] was 11.2 µM (≈ 25 µg/mL) and the MIC [12] was 22.4 µM (≈ 49.9 µg/mL). It also gave an MIC [13] of 22.4 µM (≈ 49.9 µg/mL), an MIC [14] of over 45 µM and an MIC [15] of over 45 µM. For the same compound, the MIC [16] was 22.4 µM (≈ 49.9 µg/mL), the IC50 [17] was over 7.5 µM and the IC50 [18] was over 7.5 µM. For the same compound, the IC50 [19] was over 7.5 µM, the IC50 [20] was over 7.5 µM and the IC50 [21] was over 7.5 µM. It also gave an IC50 [22] of over 7.5 µM, an IC50 [23] of over 7.5 µM and an IC50 [24] of over 7.5 µM. It also gave an IC50 [25] of over 7.5 µM, an IC50 [26] of over 7.5 µM and an IC50 [27] of 5.9 µM. For the same compound, the IC50 [28] was 6.7 µM.
With `CC(=O)NCC(=O)N[C@@H](Cc1ccccc1)C(=O)NC1(C(=O)NCC(=O)NC2(C(=O)NC(CCN)C(=O)NC3(C(=O)NCC(=O)NC4(C(=O)N[C@@H](Cc5ccccc5)C(=O)NC5(C(=O)NCC(=O)NC6(C(=O)NCC(=O)NC(CCN)C(=O)NC7(C(=O)NC(CCN)C(=O)NC(CCN)C(=O)NC(CCN)C(=O)NC(CCN)C(N)=O)CCCCC7)CCCCC6)CCCCC5)CCCCC4)CCCCC3)CCCCC2)CCCCC1` (some centres undefined) (Ac-GF[Ac6c]G[Ac6c][ξDab][Ac6c]G[Ac6c]F[Ac6c]G[Ac6c]G[ξDab][Ac6c][ξDab][ξDab][ξDab][ξDab]-NH2) the MIC [1] was 2.97 µM (≈ 6.28 µg/mL), the MIC [2] was 1.48 µM (≈ 3.13 µg/mL) and the MIC [3] was 1.48 µM (≈ 3.13 µg/mL). It also gave an MIC [4] of 1.48 µM (≈ 3.13 µg/mL), an MIC [5] of 2.96 µM (≈ 6.26 µg/mL) and an MIC [6] of 2.96 µM (≈ 6.26 µg/mL). For the same compound, the MIC [7] was 5.91 µM (≈ 12.5 µg/mL), the MIC [8] was 2.96 µM (≈ 6.26 µg/mL) and the MIC [9] was 2.96 µM (≈ 6.26 µg/mL). It also gave an MIC [10] of 47.3 µM (≈ 100 µg/mL), an MIC [11] of 1.48 µM (≈ 3.13 µg/mL) and an MIC [12] of 2.96 µM (≈ 6.26 µg/mL). For the same compound, the MIC [13] was 23.6 µM (≈ 50 µg/mL), the MIC [14] was over 47 µM and the MIC [15] was over 47 µM. The MIC [16] was 11.8 µM (≈ 25 µg/mL), the IC50 [17] was 2.7 µM and the IC50 [18] was 3 µM. The IC50 [19] was 2.3 µM, the IC50 [20] was 6.4 µM and the IC50 [21] was 2.6 µM. It also gave an IC50 [22] of 1.9 µM, an IC50 [23] of 4.4 µM and an IC50 [24] of 2.1 µM. It also gave an IC50 [25] of 6.5 µM, an IC50 [26] of 2.4 µM and an IC50 [27] of 1.5 µM. The IC50 [28] was 1.7 µM.

Source: ChEMBL document CHEMBL3822432, “Antibacterial and anticancer activity of a series of novel peptides incorporating cyclic tetra-substituted C(α) amino acids” (Bioorg Med Chem, 2016)
